Common to all, as to format: cell-based
Experiment [1] concerns the target T1, CDK2 (Homo sapiens, UniProt P24941). Put plainly: NanoBRET CDK2 engagement assay. Conditions: OVCAR3 cells with stable CDK2-Luciferase vector, 24 hours treatment. Set-up: expressed in transfected cells. The procedure: OVCAR3 cells with stable transfection of CDK2-Luciferase vector were seeded into 96-well plate at a density of 20,000 cells per well, 50 μL Opti-MEM medium supplemented with 1% FBS. Following morning, cells were treated with compounds of the disclosure, with starting concentration at 3 μM and ½ log dilution down to 0.3 nM for 24 hours at 37° C. DMSO treatment serves as control. Compound engagement was then measured using NanoBRE™ Kinase Kit from Promega (Part Number: CS1810C122, NanoBRET™ TE Kinase Kit #10, 1K) following manufacturer's instruction. For 24 hours treatment, tracer was added only for the last 2 hours. Briefly, 2.5 μL of complete 20× NanoBRET Tracer was added to the cells in suspension. Immediately prior to BRET measurements, prepare 3× Complete NanoBRET® Nano-Glo® Substrate in Opti-MEM without serum and phenol red. Without any delay, 25 μL per well of 3× Complete NanoBRET™ Nano-Glo® Substrate for a 96-well plate was added and mixed well. Signal was then read on a CLARIOstar® plate reader (measure donor emission (e.g., 450 nm) and acceptor emission (e.g., 610 nm or 630 nm) using a NanoBRET™-compatible luminometer. Target engagement was calculated with DMSO treatment as 100% signal, and IC50 was calculated by GraphPad Prism 9.
In general terms: In BRET a luciferase serves as donor, and the signal depends on an acceptor being close.

Experiment [2] addresses T1, CDK2. Put plainly: Phospho-Rb HTRF measurement in OVCAR3 cells (inhibition of CDK2). Conditions: pRB(S807/811) assay, 24 h compound treatment. The arrangement: High-Throughput Measurement of Cellular Endogenous CDK2; endogenous in cells; host or cells: OVCAR3. The procedure: Phosphorylation of RB protein at S780 and S807/811 were measured using HTRF phospho-RB cellular kits (Cat #64RBS780PEG and 64RBS807PEG) from Cisbio.
On Day 1, OVCAR3 or KYSE520 cells were seeded into 96-well tissue-culture treated plates at 20,000 cells/well in 200 μL and incubated overnight at 37° C. in CO2 atmosphere. On Day 2, the cells were treated with test compounds at concentrations from 0.3 to 10,000 nM using HP D300 digital dispenser. Twenty-four hours after compound treatment, cell culture media was removed by flicking the plate and tapping the plate against clean paper towel. Immediately 30 μL 1× lysis buffer was supplemented from the kit and the plate was incubated at room temperature on shaker for 30 min. After homogenization by pipetting up and down, 8 μL cell lysate from 96-well cell culture plate was transferred to 384-well small volume white detection plate. 2 μL premixed detection solution was added and the plate was covered with sealer. To prepare the detection solution, d2 conjugated-phospho-RB antibody and Eu-cryptate conjugated phosphor-RB antibody were diluted into detection buffer following manufacturer's instruction. Detection plates were incubated for 4 h at room temperature and read on ClarioStar (BMG Labtech) in TR-FRET mode (665 nM and 620 nM). The TR-FRET ratio (665 nM/620 nM) was plotted against the compound concentration and normalized to DMSO controls. Half maximal inhibition concentration (IC50) values are calculated with a four-parameter logistic fit using GraphPad Prism (version 8; La Jolla, CA).
(In general: TR-FRET usually uses a lanthanide donor and a delayed reading to cut background.)

The target in experiment [3] is T1, CDK2. Put plainly: CDK2 HTRF assay (cellular endogenous CDK2 level). The arrangement: High-Throughput Measurement of Cellular Endogenous CDK2; endogenous in cells; host or cells: OVCAR3. Conditions: OVCAR-3; OVCAR3 cells, 24 hours, 0.3 to 10,000 nM; read-out: max degradation of CDK2. The procedure: Effects of compounds on cellular CDK2 level can be monitored by a high-throughput HTRF assay or traditional Western Blot assay.
To determine half maximal degradation concentration (DC50) values of compounds, cellular CDK2 level was measured in 96-well format using HTRF total CDK2 cellular kit (Cat #64CDK2TPEG) from Cisbio.
On Day 1, OVCAR3 cells were seeded into 96-well tissue-culture treated plates at 20,000 cells/well in 200 μL and incubated overnight at 37° C. in CO2 atmosphere. On Day 2 cells were treated with compounds at concentration ranging from 0.3 to 10,000 nM using HP D300 digital dispenser. 24 hours after compound treatment, cell culture media was removed by flicking the plate and tapping the plate against clean paper towel. Immediately 30 μL 1× lysis buffer was supplemented from the kit and the plate was incubated at room temperature on shaker for 30 min. After homogenization by pipetting up and down, 8 μL cell lysate from 96-well cell culture plate was transferred to 384-well small volume white detection plate. 2 μL premixed detection solution was added and the plate was covered with sealer. To prepare the detection solution, d2 conjugated-CDK2 antibody and Eu-cryptate conjugated CDK2 antibody were diluted into detection buffer following manufacturer's instruction. Detection plates were incubated overnight at room temperature and read on ClarioStar (BMG Labtech) in TR-FRET mode (665 nM and 620 nM). The TR-FRET ratio (665 nM/620 nM) was plotted against the compound concentration and normalized to DMSO controls. Half maximal degradation concentration (DC50) values were calculated with a four-parameter logistic fit using GraphPad Prism (version 8; La Jolla, CA). FIG. 1 provides a dose-response curve of Compound 1 in Compound Table I in cellular CDK2 HTRF assay. IC50 in FIG. 1 is the same as DC50. Compounds 1, 13, 16, 22, 23, 28, 34, 35, 36, 37, 38, 39, 42, 48, 50, 51, 53, 54, 55, 56, 57, 58, 59, 60, 61, 62, 63, 65, 66, 68, 69, 70 were tested and max degradation of CDK2 observed was from about 35% to about 90%.

The structures appear in SMILES notation.

This is an account of results in patent US20250018049A1, “COMPOUNDS FOR DEGRADING CYCLIN-DEPENDENT KINASE 2 VIA UBIQUITIN PROTEOSOME PATHWAY” (NIKANG THERAPEUTICS, INC., priority 2020, published 2025).

Broadly, the IC50 is the concentration that inhibits the measured activity by half. A higher IC50 goes with weaker potency. With `O=C1CCC(N2Cc3cc(CN4CCC(Oc5cccc(S(=O)(=O)N6CCC(Nc7ncc8ccc(=O)n(C9CCCC9)c8n7)CC6)c5)CC4)ccc3C2=O)C(=O)N1` (stereo not drawn) [Compound 66, 3-(5-((4-(3-((4-((8-cyclopentyl-7-oxo-7,8-dihydropyrido[2,3-d]pyrimidin-2-yl)amino)-piperidin-1-yl)sulfonyl)phenoxy)-piperidin-1-yl)-methyl)-1-oxoisoindolin-2-yl)piperidine-2,6-dione], the IC50 in experiment [1] stood at 46 nM; in experiment [2] it was 107 nM. Besides, the Dmax in experiment [3] lay in the range of 35 to 90%.

As to `O=C1CCC(N2Cc3cc(N4CCN(Cc5cccc(S(=O)(=O)N6CCC(Nc7ncc8cc(C(F)F)c(=O)n(C9CCCC9)c8n7)CC6)c5)CC4)ccc3C2=O)C(=O)N1` (stereo not drawn) [Compound 56, 3-(5-(4-(3-((4-((8-cyclopentyl-6-(difluoromethyl)-7-oxo-7,8-dihydropyrido[2,3-d]pyrimidin-2-yl)amino)piperidin-1-yl)sulfonyl)benzyl)piperazin-1-yl)-1-oxoisoindolin-2-yl)piperidine-2,6-dione], the IC50 in experiment [1] is 241 nM; in experiment [2] it was 67 nM. Moreover, the Dmax in experiment [3] fell in the range of 35 to 90%.

In the case of `O=C1CCC(N2Cc3cc(N4C5CCC4CN(Cc4cccc(S(=O)(=O)N6CCC(Nc7ncc8ccc(=O)n(C9CCCC9)c8n7)CC6)c4)C5)ccc3C2=O)C(=O)N1` (stereo not drawn) [Compound 52, 3-(5-(3-(3-((4-((8-cyclopentyl-7-oxo-7,8-dihydropyrido[2,3-d]pyrimidin-2-yl)amino)-piperidin-1-yl)sulfonyl)benzyl)-3,8-diazabicyclo-[3.2.1]octan-8-yl)-1-oxoisoindolin-2-yl)piperidine-2,6-dione], the values for the IC50 in experiment [1] and in experiment [2] were 499 nM and 1420 nM, respectively.

For the molecule `O=C1CCC(N2C(=O)c3cc(F)c(N4CCN(Cc5cc(F)cc(S(=O)(=O)N6CCC(Nc7ncc8ccc(=O)n(C9CCCC9)c8n7)CC6)c5)CC4)cc3C2=O)C(=O)N1` (stereo not drawn) [Compound 43, 5-(4-(3-((4-((8-cyclopentyl-7-oxo-7,8-dihydro-pyrido[2,3-d]pyrimidin-2-yl)amino)piperidin-1-yl)sulfonyl)-5-fluorobenzyl)piperazin-1-yl)-2-(2,6-dioxopiperidin-3-yl)-6-fluoroisoindoline-1,3-dione], the concentration for half-maximal inhibition (IC50) in experiment [1] was found to be 401 nM; in experiment [2], 465 nM.

As to `O=C1CCC(N2C(=O)c3ccc(N4CC(Oc5ccc(S(=O)(=O)N6CCC(Nc7ncc8ccc(=O)n(C9CCCC9)c8n7)CC6)cc5)C4)cc3C2=O)C(=O)N1` (stereo not drawn) [compound 7, 5-(3-(4-((4-((8-cyclopentyl-7-oxo-7,8-dihydro-pyrido[2,3-d]pyrimidin-2-yl)amino)piperidin-1-yl)sulfonyl)phenoxy)azetidin-1-yl)-2-(2,6-dioxopiperidin-3-yl)isoindoline-1,3-dione], the IC50 in experiment [1] was 99.9 nM; in experiment [2] it was 1120 nM.

Regarding `O=C1CCC(N2C(=O)c3ccc(N4CC(Oc5cccc(S(=O)(=O)N6CCC(Nc7ncc8ccc(=O)n(C9CCCC9)c8n7)CC6)c5)C4)cc3C2=O)C(=O)N1` (stereo not drawn) [Compound 12, 5-(3-(3-((4-((8-cyclopentyl-7-oxo-7,8-dihydro-pyrido[2,3-d]pyrimidin-2-yl)amino)piperidin-1-yl)sulfonyl)phenoxy)azetidin-1-yl)-2-(2,6-dioxopiperidin-3-yl)isoindoline-1,3-dione], the figures for the IC50 in experiment [1] and in experiment [2] were 4780 nM and 697 nM, respectively.

As to `Cn1c(=O)n(C2CCC(=O)NC2=O)c2cccc(C3CCN(C4CCN(S(=O)(=O)N5CCC(Nc6ncc7ccc(=O)n(C8CCCC8)c7n6)CC5)CC4)CC3)c21` (stereo not drawn) [Compound 31, 3-(4-(1′-((4-((8-cyclopentyl-7-oxo-7,8-dihydro-pyrido[2,3-d]pyrimidin-2-yl)amino)piperidin-1-yl)sulfonyl)-[1,4′-bipiperidin]-4-yl)-3-methyl-2-oxo-2,3-dihydro-1H-benzo[d]imidazol-1-yl)piperidine-2,6-dione], the results for the IC50 in experiment [1] and in experiment [2] were 64 nM and 294 nM, respectively.

As for `CN(CCCOCCCc1cccc2c1n(C)c(=O)n2C1CCC(=O)NC1=O)S(=O)(=O)N1CCC(Nc2ncc3ccc(=O)n(C4CCCC4)c3n2)CC1` (stereo not drawn) [Compound 19, 4-((8-cyclopentyl-7-oxo-7,8-dihydropyrido[2,3-d]pyrimidin-2-yl)amino)-N-(3-(3-(1-(2,6-dioxo-piperidin-3-yl)-3-methyl-2-oxo-2,3-dihydro-1H-benzo[d]imidazol-4-yl)propoxy)propyl)-N-methylpiperidine-1-sulfonamide], the IC50 was determined as 253 nM in experiment [1] and 707 nM in experiment [2].

With `CN(C[C@H]1CN(CCCc2cccc3c2n(C)c(=O)n3C2CCC(=O)NC2=O)CCO1)S(=O)(=O)N1CCC(Nc2ncc3ccc(=O)n(C4CCCC4)c3n2)CC1` (stereo partly drawn) [Compound 24, 4-((8-cyclopentyl-7-oxo-7,8-dihydropyrido[2,3-d]pyrimidin-2-yl)amino)-N-(((2R)-4-(3-(1-(2,6-dioxopiperidin-3-yl)-3-methyl-2-oxo-2,3-dihydro-1H-benzo[d]imidazol-4-yl)propyl)morpholin-2-yl)methyl)-N-methylpiperidine-1-sulfonamide], the figures for the IC50 in experiment [1] and in experiment [2] were 169 nM and 194 nM, respectively.

Take `CN(C1CCC(Nc2cccc3c2C(=O)N(C2CCC(=O)NC2=O)C3=O)CC1)S(=O)(=O)N1CCC(Nc2ncc3ccc(=O)n(C4CCCC4)c3n2)CC1` (stereo not drawn) [Compound 15, 4-((8-cyclopentyl-7-oxo-7,8-dihydropyrido[2,3-d]pyrimidin-2-yl)amino)-N-(4-((2-(2,6-dioxo-piperidin-3-yl)-1,3-dioxoisoindolin-4-yl)amino)-cyclohexyl)-N-methylpiperidine-1-sulfonamide]: the IC50 worked out at 356 nM in experiment [1] and 2020 nM in experiment [2].

`O=C1CCC(N2C(=O)c3cc(F)c(N4CC5CCC(C4)N5Cc4cccc(S(=O)(=O)N5CCC(Nc6ncc7ccc(=O)n(C8CCCC8)c7n6)CC5)c4)cc3C2=O)C(=O)N1` (stereo not drawn) [Compound 49, 5-(8-(3-((4-((8-cyclopentyl-7-oxo-7,8-dihydro-pyrido[2,3-d]pyrimidin-2-yl)amino)piperidin-1-yl)sulfonyl)benzyl)-3,8-diazabicyclo[3.2.1]octan-3-yl)-2-(2,6-dioxopiperidin-3-yl)-6-fluoroi-soindoline-1,3-dione]: the IC50 in experiment [1] was 272 nM; in experiment [2], 836 nM.
